Experimental data taken from paper PMC8228537, “Acrylonitrile Derivatives against Trypanosoma cruzi: In Vitro Activity and Programmed Cell Death Study” (Pharmaceuticals, 2021).

Key:
[1] = test system: J774A.1 murine macrophage cell line; test: Cytotoxicity, alamarBlue, murine macrophages; assay type: cell-based; details: J774A.1 murine macrophages, 24 h, mean ± SD
Experimental: (§1) The cytotoxicity was evaluated against murine macrophages (J774A.1) using the same method mentioned in the antiparasitic assay, based on the alamarBlue Cell Viability Reagent®. In a sterile 96-well plate, 10^4 cells per well were added, then, after the complete adhesion, serial dilutions of the 32 compounds, using a deep well plate, and a 10% of alamarBlue® were joined.

[2] = test system: epimastigote stage of T. cruzi; test: Antiparasitic activity, alamarBlue, epimastigotes; assay type: cell-based, Trypanosoma cruzi; details: for Selectivity index (SI): ratio of CC50 for J774A.1 and IC50 for epimastigotes of T. cruzi
Experimental: Epimastigotes of Trypanosoma cruzi (Y strain) were used in this study and cultured in liver infusion tryptose (LIT) medium supplemented with 10% of foetal bovine serum (FBS) at 26 °C.
In a sterile 96-well plate, a serial dilution of acrylonitriles was carried out in LIT medium supplemented with 10% FBS with a final volume of 100 µL. Parasites were added to wells to reach a concentration of 10^5 parasites per well. Finally, a 10% of alamarBlue Cell Viability Reagent® (ThermoFisher Scientific, Waltham, MA, USA) was added into each well, and the plate was incubated for 72 h at 26°C.

[3] = Cytotoxicity, alamarBlue, murine macrophages; assay type: cell-based; details: mouse, J774A.1 murine macrophage cell line, J774A.1 murine macrophages, mean ± SD
Experimental: as §1

[4] = test system: epimastigotes of Trypanosoma cruzi; test: Mitochondrial membrane potential analysis (JC-1); assay type: cell-based; details: 24 h with the IC90, JC-1, Tukey test, Figure 2
Experimental: The detection of variations in the mitochondrial membrane potential was evaluated with the JC-1 Mitochondrial Membrane Potential Assay Kit® (Cayman Chemical, Ann Arbor, MI, USA). In a 24-well plate, 500 µL of epimastigotes at 10^6 parasites per ml were added with the inhibitory concentration 90 (IC90) of the compounds. After 24 h of incubation at 26 °C, the epimastigotes were centrifuged (3000 rpm, 10 min, 4 °C), resuspended in 50µL of JC-1 buffer and added to a black 96-well plate with 5 µL of JC-1. After 30 min of incubation at 26 °C, the green and red fluorescence were measured using an EnSpire Multimode Plate Reader® (PerkinElmer). Results were expressed in percentage relative to negative control (without treatment) of the ratio 595/535 nm (J-aggregates/J-monomers).

[5] = test system: epimastigotes of Trypanosoma cruzi; test: ATP level analysis (CellTiter-Glo); assay type: cell-based; details: 24 h with the IC90, CellTiter-Glo, Figure 3
Experimental: Variations in the level of ATP were measured with the CellTiter-Glo® Luminescent Cell Viability Assay (Promega, WI, USA). […] Then, in a white 96-well plate, the epimastigotes were resuspended in 25µL of culture media and mixed with 25 µL of the kit. After 10 min of incubation at room temperature, the luminescence was measured using an EnSpire Multimode Plate Reader® (PerkinElmer). The results were expressed in percentage of production of ATP level relative to the negative control (without any treatment).

N#CC=CC(=O)N1C(=O)OC[C@H]1c1ccccc1 [Compound Q31, (E)-(R,E)-4-Oxo-4-(2-oxo-4-phenyloxazolidin-3-yl)but-2-enenitrile]
CC50 [1]: 10.4 ± 1.06 µM
IC50 ([2]; epimastigote stage of T. cruzi (Y strain), 72 h, alamarBlue, mean ± SD, NA: not active): 20.38 ± 0.13 µM
Selectivity index (SI) [2]: 0.51

N#CC=CC(=O)N1C(=O)OC[C@H]1c1ccccc1 [Compound Q32, (Z)-(R,Z)-4-Oxo-4-(2-oxo-4-phenyloxazolidin-3-yl)but-2-enenitrile]
CC50 [1]: 2.89 ± 0.74 µM
Selectivity index (SI) [2]: 0.78

O=C(Cn1ccnc1[N+](=O)[O-])NCc1ccccc1 [BENZ, benznidazole, reference compound]
CC50 at 24 h [3]: > 1500 µM
Variations in the mitochondrial membrane potential relative to negative control [4]: decreasing the inter-membrane potential of the mitochondria
Percentage of ATP level relative to untreated control [5]: 18.26%
